The target of one assay is T1, DNA-PK (Homo sapiens, UniProt P78527).
T1 construct: HeLa S3 cells (ATCC CCL-2.2; Batch F12594) were raised in MEM-Joklik media; endogenous in cells; host or cells: HeLa S3 cells (ATCC CCL-2.2); Endogenous enzyme purified in house: S100-2 fraction, then Q-Sepharose FF, then SP-Sepharose FF, giving fraction IV
In words: Standard DNA-PK assay (phosphorylation of p53 peptide substrate). It counts as biochemical. As to conditions: purified human DNA-PK, 50 μM ATP, room temperature, read-out: IC50 (inhibition of DNA-PK enzyme activity). The method, then: Reactions were carried out at room temperature. Reactions were started by addition of ATP and stopped by application to phosphocellulose paper. Reaction products spotted onto phosphocellulose paper were washed five times with a total volume of at least 250 mL 10% acetic acid or 150 mM phosphoric acid. The paper was air dried and radioactivity was determined in a Beckman LS6000IC scintillation counter.

Assay [1] has as its system MDA-MB231 (human breast carcinoma) cells. In words: DNA double-strand break repair assay (pulse field gel electrophoresis after irradiation). The class given is cell-based. The settings on record: 25 Gy, at concentrations which enhanced radiation induced cell killing. The method, then:
To further determine the cellular effect of DNA-PK inhibitors, an assay to measure chromosomal discontinuities was employed. Ionizing radiation induces chromosomal DNA double-strand breaks. Following high dose radiation, chromosomes can be extracted from cells and fractionated by pulse field electrophoresis to distinguish chromosomal fragments from intact larger chromosomes. Using this technique, the activity of DNA-PK inhibitors was measured.
MDA-MB231 (human breast carcinoma) cells were seeded onto T25 flasks with RPMI1640+10% FBS, 2 mM L-glutamine, penicillin G 100 U/ml-streptomycin sulfate 10 μg/ml, 1 mM Na pyruvate. When confluent, media was removed and replaced with media containing DNA-PK inhibitor or vehicle. Cells were incubated at 37° C. for 1 hr in a humidified chamber with 5% CO2. Media then was removed and flasks were filled with ice-cold D-PBS and either: (a) processed immediately; (b) irradiated (25 Gy in a ^137Cs Mark I irradiator at a flux of 335 rad/min) and processed immediately; (c) irradiated and incubated for 2 hr in complete RPMI1640+vehicle at 37° C. (in humidified 5% CO2 atmosphere to allow for DNA repair), or (d) irradiated and incubated for 2 hr in complete RPMI1640+DNA-PK inhibitor compound. […] Chromosomal DNA was visualized with SYBR-Gold (Molecular probes #S-11494) and the fluorescent image quantified on the STORM 860 (Molecular Dynamics).

Assay [2] has as its system human colorectal carcinoma cell line, HCT-116. In words: Radiation enhancement cellular proliferation assay (3H thymidine incorporation). The class given is cell-based. As to conditions: HCT-116 cells, γ-radiation at doses up to 800 rads. The method, then: To measure the ability of present DNA-PK inhibitor compounds to enhance the toxic effect of radiation treatment, the human colorectal carcinoma cell line, HCT-116, was incubated with inhibitor compounds at concentrations up to 50 μM and treated with γ-radiation at doses up to 800 rads. Cells were maintained in RPMI 1640 (Gibco) containing 10% […], 1 mM sodium pyruvate, 2 mM L-glutamine, 100 U/mL penicillin, and 100 μg/mL streptomycin at 37° C. with 5% CO2 in a humidified incubator. Cultured cells were trypsinized, counted, and seeded into 96 well plates at a concentration of 1000 cells/well. Cells were incubated with varying concentrations of the inhibitor compounds from 1.8 μM to 50 μM for 10 hr or 5 days, then the media-containing compounds were removed and replaced With fresh media without drug. After five days, ^3H thymidine (1 μCi/well) was added to each well and incubated for an additional 20 hr. The plates were frozen at −70° C. for at least 2 hr and thawed at 37° C. to lyse the cells. DNA was harvested onto glass fiber filters and ^3H thymidine incorporation determined with a Packard Matrix 96 direct beta counter. Compound dependent potentiation of radiation induced cell killing was determined by comparing the effect of radiation alone and radiation plus inhibitor compound.
A general note: Uptake of a labelled nucleoside into DNA is a usual measure of proliferation.

Consider one molecule from US8404681B2, “Xanthones, thioxanthones and acridinones as DNA-PK inhibitors” (Luitpold Pharmaceuticals, Inc., priority 2003, dated 2013).

Molecules are shown by their SMILES. pIC50: −log10 of the molar value.

The pIC50 is the negative decadic logarithm of the IC50, by convention in mol/L.

Take `O=c1c2ccccc2n(Cc2ccccc2)c2cc(N3CCOCC3)cc(O)c12` [Example 28, 10-Benzyl-1-hydroxy-3-morpholin-4-yl-10H-acridin-9-one]: the negative logarithm of the IC50 (pIC50) at DNA-PK was 7.70. For the same molecule, the “DNA double-strand break repair” value in assay [1] is recorded as “inhibited DNA double-strand break repair”. The “concentration that enhanced radiation induced cell killing 2-fold” value in assay [2] was 17.5 µM.
